Source: US20120046186A1, “Gene Expression Markers for Prediction of Response to Platinum-Based Chemotherapy Drugs” (priority 2010, published 2012)

Test system: HCT 116 cell line
Assay: cDNA overexpression of LTBR and TMEM30A: oxaliplatin IC50, cell viability
Assay type: cell-based, human
Details: 72 h
Excerpt: FIGS. 5A-5C show the validation of genes identified in the siRNA screen for genes regulating sensitivity or resistance to oxaliplatin. The effect of siRNA-silencing or cDNA overexpression on the IC50 of oxaliplatin was expressed as the log2 fold-shift of the mean IC50 of siRNA-treated (or cDNA-overexpressing) cells relative to the mean IC50 of non-silencing siRNA control-treated (or vector-alone) cells. […] Data represent mean±SEM (n=3).
Full-length LTBR and TMEM30A open reading frames were cloned into pCMV-XL4 (Origene, Rockville, Md.) and validated by sequencing. Transfection was performed using Turbofectin 8.0® (Origene, Rockville, Md.) in a 96-well format as per manufacturer's instructions using 100 ng cDNA per well. Following a 4 hr incubation, 10 μl per well of an 11-point, 2-fold serial dilution of oxaliplatin (50 μM maximum) was then added. Assays were performed in triplicate, using the empty pCMV-XL4 vector as negative control, with biological replicates. […] Overexpression of cDNA was validated by qRT-PCR using the High-Capacity cDNA Reverse Transcription Kit® (Life Technologies, Carlsbad, Calif.) and qPCR using the 7900 HT Fast Real-Time PCR System® (Life Technologies, Carlsbad, Calif.) with gene-specific primers (ABI, Carlsbad, Calif.).

## O=C1[O][Pt]2([NH][C@@H]3CCCC[C@H]3[NH]2)[O]C1=O [oxaliplatin]
Transient overexpression of full-length LTBR vs empty pCMV-XL4 vector
  increase of IC50 of oxaliplatin: > 2 fold
Transient overexpression of full-length TMEM30A vs empty pCMV-XL4 vector
  increase of IC50 of oxaliplatin: > 2 fold
